How the values were obtained:
[1] = tested on: patients with PNH; assay: PEGASUS quality of life assessments (LASA, EORTC QLQ-C30); type: in vivo, human
Procedure: QoL assessments were Linear Analog Scale Assessment (LASA) and the European Organisation for Research and Treatment of Cancer Quality of Life Questionnaire-Core 30 Scale (EORTC QLQ-C30) scores. Change from baseline (CFB) to week 16 was analyzed using a mixed model for repeated measures. The LASA consists of 3 sections asking respondents to rate their perceived level of functioning and contains specific domains for activity level, ability to carry out daily activities, and overall QoL. Each section of the LASA is scored from low of 0 to high of 100 and asks patients to rate different aspects of their life over the past week; section 1 asks patients to rate their energy level, section 2 their ability to do daily activities, section 3 their overall quality of life. Scores for the 3 individual components of the scale and the combined score were included in the analysis. The EORTC contains 30 questions comprising 5 functional scale scores and individual items; it asks patients to answer 28 questions on a scale of 1 (“not at all”) to 4 (“very much”) that generally focus on the past week of their life. An additional 2 questions are rated on a scale of 1 (“very poor”) to 7 (“excellent”) for overall health and quality of life over the past week.

[2] = tested on: patients with PNH previously treated with eculizumab; assay: Matching-adjusted indirect comparison of pegcetacoplan (PEGASUS) versus ravulizumab (302 study); type: in vivo, human; settings: PEGASUS Week 16 vs 302 study Week 26, after matching
Description: Both studies share similar eligibility criteria. However, PEGASUS also required patients to have hemoglobin <10.5 g/dL and absolute reticulocyte count >1.0x the upper limit of normal; these criteria were not applicable in the 302 study. To adjust for cross-study differences in baseline characteristics, propensity score weighting was utilized to balance baseline demographic and clinical characteristics. Outcomes assessed included: transfusion avoidance, total number of units of packed red blood cells (PRBCs) transfused, hemoglobin stabilization, and change in Functional Assessment of Chronic Illness Therapy (FACIT)-Fatigue score. Outcomes were assessed from PEGASUS at Week 16 and from the 302 study at Week 26. Unadjusted mean and least squares mean change in FACIT-Fatigue score were compared for PEGASUS and the 302 study, respectively. Weighted Wald tests and 95% confidence intervals (CIs) were computed for comparisons of categorical and continuous outcomes (i.e., chi square and z tests, respectively).

[3] = change from baseline at week 16, ITT
[4] = change from baseline at week 16, ITT, listed as Pegcetacoplan
[5] = week 16, ITT, negative = improvement

With “Poly(oxy-1,2-ethanediyl), α-hydro-ω-hydroxy-, 15,15ʹ -diester with N-acetyl-L-isoleucyl-L-cysteinyl-L-valyl-1-methyl-L-tryptophyl-L-glutaminyl-L-α-aspartyl-L-tryptophylglycyl-L-alanyl-L-histidyl-L-arginyl-L-cysteinyl-L-threonyl-2-[2-(2-aminoethoxy)ethoxy]acetyl-N^6-carboxy-L-lysinamide cyclic (2-->12)-(disulfide) [pegcetacoplan]” the “Appetite loss, Difference (95% CI) in LS mean, pegcetacoplan vs eculizumab” value [1, 3] was -8.0 (-23.2, 7.3), the “Cognitive functioning, Difference (95% CI) in LS mean, pegcetacoplan vs eculizumab” value [1, 3] was 9.6 (-4.5, 23.6) and the “Constipation, Difference (95% CI) in LS mean, pegcetacoplan vs eculizumab” value [1, 3] was 1.8 (-15.7, 19.3). The “Diarrhea, Difference (95% CI) in LS mean, pegcetacoplan vs eculizumab” value [1, 3] was -1.4 (-19.3, 16.5), the “Dyspnea, Difference (95% CI) in LS mean, pegcetacoplan vs eculizumab” value [1, 3] was -14.6 and the “Emotional functioning, Difference (95% CI) in LS mean, pegcetacoplan vs eculizumab” value [1, 3] was 4.1 (-11.6, 19.8). The “Fatigue symptom scale, Difference (95% CI) in LS mean, pegcetacoplan vs eculizumab” value [1, 3] was -20.7, the “Financial difficulties, Difference (95% CI) in LS mean, pegcetacoplan vs eculizumab” value [1, 3] was -7.4 (-21.8, 7.0) and the “Global Health Status/QoL, Difference (95% CI) in LS mean, pegcetacoplan vs eculizumab” value [1, 3] was 18.6 (0.1, 37.1). The “Insomnia, Difference (95% CI) in LS mean, pegcetacoplan vs eculizumab” value [1, 3] was 0.3 (-15.7, 16.3), the “Nausea and vomiting, Difference (95% CI) in LS mean, pegcetacoplan vs eculizumab” value [1, 3] was -0.0 (-8.4, 8.4) and the “Pain, Difference (95% CI) in LS mean, pegcetacoplan vs eculizumab” value [1, 3] was -2.8 (-20.4, 14.9). For the same substance, the “Physical functioning, Difference (95% CI) in LS mean, pegcetacoplan vs eculizumab” value [1, 3] was 12.9 (4.9, 20.9), the “Role functioning, Difference (95% CI) in LS mean, pegcetacoplan vs eculizumab” value [1, 3] was 24.4 (8.8, 40.0) and the “Social functioning, Difference (95% CI) in LS mean, pegcetacoplan vs eculizumab” value [1, 3] was 11.3 (-2.4, 24.9). The “LASA score, Difference (95% CI) in LS mean, pegcetacoplan vs eculizumab” value ([1]; change from baseline at week 16, ITT, censored for transfusion) was 59.10, the “LASA score, Difference (95% CI) in LS mean, pegcetacoplan vs eculizumab” value ([1]; change from baseline at week 16, ITT, censored for transfusion, listed as Pegcetacoplan) was 59.1 (16.9, 101.3) and the “Dyspnea, Difference (95% CI) in LS mean, pegcetacoplan vs eculizumab” value [1, 4] was -14.6 (-29.9, 0.8). The “Fatigue symptom scale, Difference (95% CI) in LS mean, pegcetacoplan vs eculizumab” value [1, 4] was -20.7 (-35.3, -6.2), the “EORTC QLQ-C30 Cognitive functioning, LS mean (SE) change from baseline” value ([1]; week 16, ITT) was 5.8 (3.3) and the “EORTC QLQ-C30 Emotional functioning, LS mean (SE) change from baseline” value ([1]; week 16, ITT) was 8.0 (3.4). For the same substance, the “EORTC QLQ-C30 Global Health Status/QoL, LS mean (SE) change from baseline” value ([1]; week 16, ITT) was 15.9 (3.6), the “EORTC QLQ-C30 Physical functioning, LS mean (SE) change from baseline” value ([1]; week 16, ITT) was 16.9 (2.1) and the “EORTC QLQ-C30 Role functioning, LS mean (SE) change from baseline” value ([1]; week 16, ITT) was 15.4 (3.9). The “EORTC QLQ-C30 Social functioning, LS mean (SE) change from baseline” value ([1]; week 16, ITT) was 15.1 (2.9), the “LASA score, LS mean (SE) change from baseline” value ([1]; week 16, ITT, censored for transfusion) was 49.4 (10.2) and the “EORTC QLQ-C30 Appetite loss, LS mean (SE) change from baseline” value [1, 5] was -3.8 (3.4). For the same substance, the “EORTC QLQ-C30 Constipation, LS mean (SE) change from baseline” value [1, 5] was 3.0 (3.2), the “EORTC QLQ-C30 Diarrhea, LS mean (SE) change from baseline” value [1, 5] was 0.3 (3.7) and the “EORTC QLQ-C30 Dyspnea, LS mean (SE) change from baseline” value [1, 5] was -20.1 (3.5). For the same substance, the “EORTC QLQ-C30 Fatigue symptom scale, LS mean (SE) change from baseline” value [1, 5] was -22.9 (3.3), the “EORTC QLQ-C30 Financial difficulties, LS mean (SE) change from baseline” value [1, 5] was -6.8 (3.9) and the “EORTC QLQ-C30 Insomnia, LS mean (SE) change from baseline” value [1, 5] was -9.2 (4.0). For the same substance, the “EORTC QLQ-C30 Nausea and vomiting, LS mean (SE) change from baseline” value [1, 5] was -0.3 (1.6), the “EORTC QLQ-C30 Pain, LS mean (SE) change from baseline” value [1, 5] was -0.7 (4.3) and the “comparative effectiveness versus ravulizumab (MAIC, anchored on eculizumab)” value [2] was “improvement in transfusion avoidance, hemoglobin stabilization, and fatigue, and a reduction in the total number of units of PRBCs transfused”.
